The structures appear in SMILES notation. pEC50, pIC50: −log10 of the molar value.

Usually pIC50 stands for the negative decadic logarithm of the IC50, by convention in mol/L. A high value points to a small IC50. The pEC50 is the EC50 on a negative log10 scale, so that one unit is a factor of ten.

Human RIP1 kinase, sequence (Q13546 whole entry): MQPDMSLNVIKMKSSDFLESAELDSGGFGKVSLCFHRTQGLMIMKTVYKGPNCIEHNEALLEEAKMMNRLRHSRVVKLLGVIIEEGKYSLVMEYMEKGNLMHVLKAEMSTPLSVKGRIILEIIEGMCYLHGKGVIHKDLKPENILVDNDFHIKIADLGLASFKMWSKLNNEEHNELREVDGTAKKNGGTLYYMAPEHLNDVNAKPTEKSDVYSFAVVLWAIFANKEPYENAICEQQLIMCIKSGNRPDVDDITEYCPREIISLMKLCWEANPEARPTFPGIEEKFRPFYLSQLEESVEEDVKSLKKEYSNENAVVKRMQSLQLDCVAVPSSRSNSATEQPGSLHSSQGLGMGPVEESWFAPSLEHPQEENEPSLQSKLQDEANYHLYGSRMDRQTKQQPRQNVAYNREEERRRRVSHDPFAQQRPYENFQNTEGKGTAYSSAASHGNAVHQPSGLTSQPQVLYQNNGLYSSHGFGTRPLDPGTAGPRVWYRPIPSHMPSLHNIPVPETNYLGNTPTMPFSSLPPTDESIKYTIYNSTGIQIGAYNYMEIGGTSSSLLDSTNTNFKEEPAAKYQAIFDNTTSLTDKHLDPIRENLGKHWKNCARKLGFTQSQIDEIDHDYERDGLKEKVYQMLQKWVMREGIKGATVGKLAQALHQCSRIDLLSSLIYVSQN

The target in the first experiment is Human RIP1 kinase (Homo sapiens (Human), UniProt Q13546). In words: Human RIP1 kinase assay. In kind it is biochemical. The note with it: given as bound or range. The text has this:
(§1) Representative IC50 of hRIP1 Kinase Assay Correlated with Our IC50 of Cell Necrosis Assay: […]
Take `CCC(C)(C)C(=O)N(O)Cc1ccsc1` [Compound 23, N-hydroxy-2,2-dimethyl-N-(thiophen-3-ylmethyl)butanamide]: the pIC50 is > 7.00.

As to `CCC(C)(C)C(=O)N(O)Cc1ccc(Cl)c(F)c1` [Compound 16, N-(4-chloro-3-fluorobenzyl)-N-hydroxy-2,2-dimethylbutanamide], the pIC50 is > 7.00.

`CCC(C)(C)C(=O)N(O)Cc1ccc2c(c1)CCC2` [Compound 20, N-((2,3-dihydro-1H-inden-5-yl)methyl)-N-hydroxy-2,2-dimethylbutanamide]: the pIC50 is > 7.00.

For `O=C(C1CCN(c2ncc(F)cn2)CC1)N(O)Cc1cc(F)cc(F)c1` [Compound 86, N-(3,5-difluorobenzyl)-1-(5-fluoropyrimidin-2-yl)-N-hydroxypiperidine-4-carboxamide], the pIC50 is > 7.00.

Regarding `O=C(C1CCN(c2ncc(F)cn2)CC1)N(O)Cc1ccccc1` [Compound 84, N-benzyl-1-(5-fluoropyrimidin-2-yl)-N-hydroxypiperidine-4-carboxamide], the pIC50 is > 7.00.

`Cc1ccsc1CN(O)C(=O)C(C)(C)C(F)(F)F` [Compound 48, 3,3,3-trifluoro-N-hydroxy-2,2-dimethyl-N-((3-methylthiophen-2-yl)methyl)propanamide] gave a pIC50 of 6.00 to 7.00.

The molecule `CCC(C)(C)C(=O)N(O)Cc1cnc(C)s1` [Compound 24, N-hydroxy-2,2-dimethyl-N-((2-methylthiazol-5-yl)methyl)butanamide] had a pIC50 of 6.00 to 7.00.

Regarding `CCC1(C(=O)N(O)Cc2ccccc2)CC1` [Compound 38, N-benzyl-1-ethyl-N-hydroxycyclopropane-1-carboxamide], the pIC50 was 6.00 to 7.00.

Turning to `O=C(N(O)Cc1ccccc1)C1(C(F)(F)F)CCC1` [Compound 35, N-benzyl-N-hydroxy-1-(trifluoromethyl)cyclobutane-1-carboxamide], the pIC50 is 6.00 to 7.00.

A further experiment concerns ferroptosis. In words: Ferroptosis inhibitor activity. The format is cell-based. The settings on record: 1 uM threshold activity extrapolated. The text has this:
Ferroptosis Inhibitor Activity 1 Um Threshold Activity Extrapolated
In the case of `CCC(C)(C)C(=O)N(O)Cc1ccsc1` [Compound 23, N-hydroxy-2,2-dimethyl-N-(thiophen-3-ylmethyl)butanamide], the pEC50 is 5.00 to 6.00.

For `CCC(C)(C)C(=O)N(O)Cc1ccc(Cl)c(F)c1` [Compound 16, N-(4-chloro-3-fluorobenzyl)-N-hydroxy-2,2-dimethylbutanamide], the pEC50 is 5.00 to 6.00.

With `CCC(C)(C)C(=O)N(O)Cc1ccc2c(c1)CCC2` [Compound 20, N-((2,3-dihydro-1H-inden-5-yl)methyl)-N-hydroxy-2,2-dimethylbutanamide], the negative-log EC50 (pEC50) is 5.00 to 6.00.

With `O=C(C1CCN(c2ncc(F)cn2)CC1)N(O)Cc1cc(F)cc(F)c1` [Compound 86, N-(3,5-difluorobenzyl)-1-(5-fluoropyrimidin-2-yl)-N-hydroxypiperidine-4-carboxamide], the pEC50 was 5.00 to 6.00.

For `O=C(C1CCN(c2ncc(F)cn2)CC1)N(O)Cc1ccccc1` [Compound 84, N-benzyl-1-(5-fluoropyrimidin-2-yl)-N-hydroxypiperidine-4-carboxamide], the pEC50 was 5.00 to 6.00.

For `Cc1ccsc1CN(O)C(=O)C(C)(C)C(F)(F)F` [Compound 48, 3,3,3-trifluoro-N-hydroxy-2,2-dimethyl-N-((3-methylthiophen-2-yl)methyl)propanamide], the pEC50 was 5.00 to 6.00.

`CCC(C)(C)C(=O)N(O)Cc1cnc(C)s1` [Compound 24, N-hydroxy-2,2-dimethyl-N-((2-methylthiazol-5-yl)methyl)butanamide]: the pEC50 is 5.00 to 6.00.

Consider `CCC1(C(=O)N(O)Cc2ccccc2)CC1` [Compound 38, N-benzyl-1-ethyl-N-hydroxycyclopropane-1-carboxamide], for which the pEC50 was 5.00 to 6.00.

Regarding `O=C(N(O)Cc1ccccc1)C1(C(F)(F)F)CCC1` [Compound 35, N-benzyl-N-hydroxy-1-(trifluoromethyl)cyclobutane-1-carboxamide], the pEC50 was 5.00 to 6.00.

In the next experiment the test system is necrosis. In words: Necrosis inhibitory activity (cell necrosis / cell viability assay). In kind it is cell-based. The note with it: Necrosis Inhibitory Activity, given as range; read-out: EC50.
Text: Necrosis Inhibitory Activity
as §1
As to `CCC(C)(C)C(=O)N(O)Cc1ccsc1` [Compound 23, N-hydroxy-2,2-dimethyl-N-(thiophen-3-ylmethyl)butanamide], the pEC50 was 6.00 to 9.00.

In the case of `CCC(C)(C)C(=O)N(O)Cc1ccc(Cl)c(F)c1` [Compound 16, N-(4-chloro-3-fluorobenzyl)-N-hydroxy-2,2-dimethylbutanamide], the pEC50 was 6.00 to 9.00.

Regarding `CCC(C)(C)C(=O)N(O)Cc1ccc2c(c1)CCC2` [Compound 20, N-((2,3-dihydro-1H-inden-5-yl)methyl)-N-hydroxy-2,2-dimethylbutanamide], the pEC50 was 6.00 to 9.00.

Consider `O=C(C1CCN(c2ncc(F)cn2)CC1)N(O)Cc1cc(F)cc(F)c1` [Compound 86, N-(3,5-difluorobenzyl)-1-(5-fluoropyrimidin-2-yl)-N-hydroxypiperidine-4-carboxamide], for which the pEC50 is 6.00 to 9.00.

With `O=C(C1CCN(c2ncc(F)cn2)CC1)N(O)Cc1ccccc1` [Compound 84, N-benzyl-1-(5-fluoropyrimidin-2-yl)-N-hydroxypiperidine-4-carboxamide], the pEC50 was 6.00 to 9.00.

As to `Cc1ccsc1CN(O)C(=O)C(C)(C)C(F)(F)F` [Compound 48, 3,3,3-trifluoro-N-hydroxy-2,2-dimethyl-N-((3-methylthiophen-2-yl)methyl)propanamide], the pEC50 was 5.00 to 6.00.

`CCC(C)(C)C(=O)N(O)Cc1cnc(C)s1` [Compound 24, N-hydroxy-2,2-dimethyl-N-((2-methylthiazol-5-yl)methyl)butanamide]: the pEC50 is 6.00 to 9.00.

In the case of `CCC1(C(=O)N(O)Cc2ccccc2)CC1` [Compound 38, N-benzyl-1-ethyl-N-hydroxycyclopropane-1-carboxamide], the pEC50 is 5.00 to 6.00.

Consider `O=C(N(O)Cc1ccccc1)C1(C(F)(F)F)CCC1` [Compound 35, N-benzyl-N-hydroxy-1-(trifluoromethyl)cyclobutane-1-carboxamide], for which the pEC50 is 6.00 to 9.00.

Still in this experiment, the particulars now being: cell necrosis assay, given as bound or range; read-out: Cell viability assay, EC50.
For `CCC(C)(C)C(=O)N(O)Cc1ccsc1` [Compound 23, N-hydroxy-2,2-dimethyl-N-(thiophen-3-ylmethyl)butanamide], the pEC50 is 6.00 to 9.00.

As for `CCC(C)(C)C(=O)N(O)Cc1ccc(Cl)c(F)c1` [Compound 16, N-(4-chloro-3-fluorobenzyl)-N-hydroxy-2,2-dimethylbutanamide], the pEC50 was 6.00 to 9.00.

As to `CCC(C)(C)C(=O)N(O)Cc1ccc2c(c1)CCC2` [Compound 20, N-((2,3-dihydro-1H-inden-5-yl)methyl)-N-hydroxy-2,2-dimethylbutanamide], the pEC50 was > 7.00.

For `O=C(C1CCN(c2ncc(F)cn2)CC1)N(O)Cc1cc(F)cc(F)c1` [Compound 86, N-(3,5-difluorobenzyl)-1-(5-fluoropyrimidin-2-yl)-N-hydroxypiperidine-4-carboxamide], the pEC50 was 6.00 to 9.00.

Turning to `O=C(C1CCN(c2ncc(F)cn2)CC1)N(O)Cc1ccccc1` [Compound 84, N-benzyl-1-(5-fluoropyrimidin-2-yl)-N-hydroxypiperidine-4-carboxamide], the pEC50 was > 7.00.

Consider `Cc1ccsc1CN(O)C(=O)C(C)(C)C(F)(F)F` [Compound 48, 3,3,3-trifluoro-N-hydroxy-2,2-dimethyl-N-((3-methylthiophen-2-yl)methyl)propanamide], for which the pEC50 is 5.00 to 9.00.

For the molecule `CCC(C)(C)C(=O)N(O)Cc1cnc(C)s1` [Compound 24, N-hydroxy-2,2-dimethyl-N-((2-methylthiazol-5-yl)methyl)butanamide], the negative-log EC50 (pEC50) was 6.00 to 9.00.

Turning to `CCC1(C(=O)N(O)Cc2ccccc2)CC1` [Compound 38, N-benzyl-1-ethyl-N-hydroxycyclopropane-1-carboxamide], the pEC50 was 5.00 to 9.00.

Take `O=C(N(O)Cc1ccccc1)C1(C(F)(F)F)CCC1` [Compound 35, N-benzyl-N-hydroxy-1-(trifluoromethyl)cyclobutane-1-carboxamide]: the pEC50 was 6.00 to 9.00.

The record behind these values is patent US12129221B2, “Difluoro phenyl amide RIP1 inhibitor” (SIRONAX LTD, priority 2018, dated 2024).
